# Measurements reported in the supplement of paper PMC11616607.
# Assays:
# Assay in all cases: drug sensitivity score (DSS) from 5-point dose-response viability curve (DSS (area-under-curve based score)); higher = more sensitive (stronger growth inhibition or killing); extreme values may be limits of the assay
# Settings in all cases: exposure time: 72 h; concentration range: 5 concentrations over 10,000-fold range
# CAOV3 = test system: CAOV3
# In short: (§1)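 Each cell line and drug received a drug sensitivity score from Breeze software, where higher means more sensitive. Zero stands for no response. Scores came from CellTiter-Glo viability readings of ovarian cancer and normal ovarian cells, 1,500 per well in 384-well plates, after 3 days at 37°C, 5% CO2 with drugs at five concentrations over a 10,000-fold range.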
# COV318 = test system: COV318
# In short: as §1
# COV362 = test system: COV362
# In short: as §1
# HOSE1C = test system: HOSE1C
# In short: as §1
# HOSE2C = test system: HOSE2C
# In short: as §1
# JHOS2 = test system: JHOS2
# In short: as §1
# Kuramochi = test system: Kuramochi
# In short: as §1
# OV90 = test system: OV90
# In short: as §1
# OVCAR4 = test system: OVCAR4
# In short: as §1
# OVCAR5 = test system: OVCAR5
# In short: as §1
# OVCAR8 = test system: OVCAR8
# In short: as §1
# Ovsaho = test system: Ovsaho
# In short: as §1
SMILES,drug sensitivity score (CAOV3),drug sensitivity score (COV318),drug sensitivity score (COV362),drug sensitivity score (HOSE1C),drug sensitivity score (HOSE2C),drug sensitivity score (JHOS2),drug sensitivity score (Kuramochi),drug sensitivity score (OV90),drug sensitivity score (OVCAR4),drug sensitivity score (OVCAR5),drug sensitivity score (OVCAR8),drug sensitivity score (Ovsaho)
CCn1cc(-c2ccnc3[nH]c(-c4cccc(CN(C)C)c4)cc23)c(-c2ccc(NC(=O)N(C)C)cc2)n1,17,0.2,0.2,1.3,1.4,0,0.4,0.3,2.9,2,1.9,1.2
COc1cccc2c1C(=O)c1c(O)c3c(c(O)c1C2=O)C[C@@](O)(C(=O)CO)C[C@@H]3O[C@H]1C[C@H](N)[C@H](O)[C@H](C)O1 [Doxorubicin],8.6,3.6,2.3,0,0,5.9,6.2,6.7,3.5,4.6,8.8,7.6
CCc1c2c(nc3ccc(O)cc13)-c1cc3c(c(=O)n1C2)COC(=O)[C@]3(O)CC [SN-38],37.9,13.8,16.8,37.3,36.4,25.2,14.6,24.6,14.4,24,28.6,21.2
O[C@H](C[C@H]1c2c(F)cccc2-c2cncn21)[C@H]1CC[C@H](O)CC1 [GDC-0919],0.1,3,0,0,0,0.4,0.1,0,0.8,0.6,0.7,0
Clc1ccc(Nc2nnc(Cc3ccncc3)c3ccccc23)cc1 [Vatalanib],0,0,0,0,0,0,0,0,0,0,0,0.7
COc1cc2c(cc1OCCCN1CCCC1)N=C(N)C21CCC1 [A-366],0.3,0,1.2,0.8,0,0,1.2,5.7,0.1,0.4,1,0.3
Cc1ccc(NC(=O)c2ccc(CN3CCN(C)CC3)cc2)cc1Nc1nc(-c2cccnc2)cs1 [Masitinib],0.2,1.7,1.4,1.8,1.3,1.7,3.4,5.2,2.1,4.4,4.1,0.8
COc1ncc(-c2ccc3nccc(-c4ccnnc4)c3c2)cc1NS(=O)(=O)c1ccc(F)cc1F [Omipalisib],16.9,10.7,6.7,16.6,18.1,10.1,16.2,8.6,12.7,18.9,13.3,10.4
Nc1nc(NC2CC2)cc(-c2cccc(Cl)c2Cl)n1 [TH588],1.9,0.9,0.4,0,0,0,1.6,0,1.8,1.9,2.4,3.7
CC(C)NC[C@@H](C(=O)N1CCN(c2ncnc3c2[C@H](C)C[C@H]3O)CC1)c1ccc(Cl)cc1 [Ipatasertib],1.9,0.1,0,2.7,4.4,0.1,2.6,0.5,0,3,0.5,1.6
O=C1NC(=O)[C@@H](c2cn3c4c(cccc24)CCC3)[C@@H]1c1c[nH]c2ccccc12 [Tivantinib],3.7,1.9,1.6,5.2,4.7,3,2.9,2.8,1.6,4,4.1,4.2
CC(=O)c1cnc2ccc(-c3cc(Cl)c(O)c(Cl)c3)nc2c1N[C@H]1CC[C@H](CN(C)C)CC1 [OTS167],13.2,15.1,5.4,19.8,12.4,13.4,10.6,7.5,7.5,11.8,13.6,9.1
Cc1nc(Nc2ncc(C(=O)Nc3c(C)cccc3Cl)s2)cc(N2CCN(CCO)CC2)n1 [Dasatinib],9.9,0.2,8.2,4.6,6,3.5,18.5,5.5,4.6,8,9.1,12.1
COc1cc2nccc(Oc3ccc(NC(=O)Nc4cc(C)on4)c(Cl)c3)c2cc1OC [Tivozanib],1.8,0.6,0,2.4,6.8,0.2,1.7,5.6,2.3,4,2.6,0.1
CO[C@H]1C(=O)[C@]2(C)[C@@H](OC)C[C@H]3OC[C@@]3(OC(C)=O)[C@H]2[C@H](OC(=O)c2ccccc2)[C@]2(O)C[C@H](OC(=O)[C@H](O)[C@@H](NC(=O)OC(C)(C)C)c3ccccc3)C(C)=C1C2(C)C [Cabazitaxel],29.3,7.3,7.8,29.9,29.8,12.8,10.7,13.2,4.3,25.6,30.6,9
CC(C)(C)c1cc(NC(=O)Nc2ccc(Oc3ccnc4[nH]c(=O)cnc34)cc2F)n(-c2ccccc2)n1,2.8,0,0,16.2,12.8,0.5,2.3,12.4,2.8,1.8,2,1.6
CC(C)Cn1cnc2c(N)nc3ccccc3c21 [Imiquimod],0,0,0,0,0,0.5,0,0,0,0,0.1,0
